Assay [1] has as its system HeLa. In words: Compound was evaluated for the inhibition of cell proliferation of human cervix epithelioid carcinoma, HeLa (ATCC CCL2). Format: functional, cell-based.
Assay [2] deals with HepG2. Put plainly: Compound was evaluated for the inhibition of cell proliferation of human hepatocellular carcinoma, HepG2 (ATCC HB8065). Type of assay: functional, cell-based.
The nature of assay [3]: Compound was evaluated for the inhibition of cell proliferation of human ocular lens epithelium (CECH). Type of assay: functional, tissue-based. The conditions noted are these: Lens of camera-type eye.
The nature of assay [4]: Cytotoxicity ratio for Human hepatocellular carcinoma, HepG2 (ATCC HB 8065) cells. Format: functional.
Assay [5] can be described thus: Compound was evaluated for the cytotoxicity against human ocular lens epithelium (CECH). Type of assay: functional, Lens of camera-type eye.
In assay [6] the test system is HepG2. In words: Compound was evaluated for the cytotoxicity against human hepatocellular carcinoma, HepG2 (ATCC HB8065). Format: functional.
In assay [7] the test system is HeLa. Put plainly: Compound was evaluated for the cytotoxicity against human cervix epithelioid carcinoma, HeLa (ATCC CCL2). Type of assay: functional.
Assay [8] relates to HeLa. In words: Compound was evaluated for the cytotoxicity against human cervix epithelioid carcinoma, HeLa (ATCC CCL2). Type of assay: functional.

The IC50 is the concentration needed to halve the response being measured. A lower IC50 goes with inhibition by little substance.

Molecules are shown by their SMILES. A value given as a limit tells only on which side of the number the result lay.

Turning to `Cc1c(C(=O)O)c(O)cc2c1C(=O)c1c(O)c([C@@H]3O[C@H](CO)[C@@H](O)[C@H](O)[C@H]3O)c(O)c(O)c1C2=O` [CARMINIC ACID], the values for the IC50 (with HeLa [1]; in the assay on HepG2 [2]; in assay [3]) were 3730 µM, 1770 µM and 1650 µM, respectively. Further, the Ratio in assay [4] is reported as 0.93. Besides, the MNTC was 2200 µM in assay [5], 2500 µM in the assay with HepG2 [6] and >5000 µM in the assay on HeLa [7].

Take `CCC[C@@H]1C[C@@H](C(=O)N[C@@H]([C@H]2O[C@H](SC)[C@H](O)[C@@H](O)[C@H]2O)[C@H](C)Cl)N(C)C1` [CLINDAMYCIN]: the MNTC in assay [5] is 1000 µM; with HeLa [8], 1000 µM; in the assay on HepG2 [6], >5000 µM.

For the compound `C[C@H]1c2cccc(O)c2C(=O)C2=C(O)[C@]3(O)C(=O)C(C(N)=O)=C(O)[C@@H](N(C)C)[C@@H]3[C@@H](O)[C@@H]21.O` [DOXYCYCLINE], the figures for the IC50 (in the assay on HeLa [1]; with HepG2 [2]; in assay [3]) were 30 µM, 53 µM and 35 µM, respectively. Further, the Ratio in assay [4] turned out to be 0.66. Also, the MNTC in assay [5] stood at 60 µM; in the assay with HepG2 [6] it was 60 µM; in the assay with HeLa [7], 40 µM.

On to `O=c1[nH]cc(F)c(=O)[nH]1` [FLUOROURACIL], for which the IC50 with HepG2 [2] was found to be 85 µM; in assay [3], 8 µM. Besides, the Ratio in assay [4] is 0.09. Moreover, the MNTC with HepG2 [6] turned out to be 100 µM; in the assay on HeLa [7] it was 40 µM.

On to `CNC(C)C1CCC(N)C(OC2C(N)CC(N)C(OC3OCC(C)(O)C(NC)C3O)C2O)O1.CNC1C(O)C(OC2C(N)CC(N)C(OC3OC(C(C)N)CCC3N)C2O)OCC1(C)O.CNC1C(O)C(OC2C(N)CC(N)C(OC3OC(CN)CCC3N)C2O)OCC1(C)O.O=S(=O)(O)O` (stereo unspecified) [GENTAMICIN MIXTURE], for which the MNTC was 210 µM in assay [5], 210 µM in the assay with HepG2 [6] and >1050 µM in the assay on HeLa [7].

For `CO[C@@]12[C@H](COC(N)=O)C3=C(C(=O)C(C)=C(N)C3=O)N1C[C@@H]1N[C@@H]12` [MITOMYCIN], the IC50 in the assay with HepG2 [2] is 0.27 µM; in assay [3], 0.09 µM. For the same compound, in assay [4], the Ratio is 0.33. Also, the MNTC came out at 0.7 µM in the assay with HepG2 [6] and 2 µM in the assay on HeLa [7].

Take `CCn1cc(C(=O)O)c(=O)c2cnc(N3CCCC3)nc21` [PIROMIDIC ACID]: the IC50 in the assay on HeLa [1] was found to be 97 µM; in the assay with HepG2 [2], 110 µM; in assay [3], 184 µM. Also, the Ratio in assay [4] is 1.67. Besides, the MNTC in assay [5] came out at 250 µM; in the assay on HepG2 [6] it was 120 µM; in the assay on HeLa [7], 100 µM.

Consider `CN(C)[C@@H]1C(O)=C(C(N)=O)C(=O)[C@@]2(O)C(O)=C3C(=O)c4c(O)cccc4[C@@](C)(O)[C@H]3C[C@@H]12` [TETRACYCLINE], for which the IC50 stood at 51 µM with HeLa [1], 128 µM in the assay on HepG2 [2] and 207 µM in assay [3]. For the same compound, the Ratio in assay [4] was found to be 1.62.
